The target of one experiment is T1, Fxr (Homo sapiens, UniProt Q96RI1).
T1 construct: expressed in transfected cells; host or cells: SN4741 mouse neuronal cell line
T1 sequence (Q96RI1 1-486): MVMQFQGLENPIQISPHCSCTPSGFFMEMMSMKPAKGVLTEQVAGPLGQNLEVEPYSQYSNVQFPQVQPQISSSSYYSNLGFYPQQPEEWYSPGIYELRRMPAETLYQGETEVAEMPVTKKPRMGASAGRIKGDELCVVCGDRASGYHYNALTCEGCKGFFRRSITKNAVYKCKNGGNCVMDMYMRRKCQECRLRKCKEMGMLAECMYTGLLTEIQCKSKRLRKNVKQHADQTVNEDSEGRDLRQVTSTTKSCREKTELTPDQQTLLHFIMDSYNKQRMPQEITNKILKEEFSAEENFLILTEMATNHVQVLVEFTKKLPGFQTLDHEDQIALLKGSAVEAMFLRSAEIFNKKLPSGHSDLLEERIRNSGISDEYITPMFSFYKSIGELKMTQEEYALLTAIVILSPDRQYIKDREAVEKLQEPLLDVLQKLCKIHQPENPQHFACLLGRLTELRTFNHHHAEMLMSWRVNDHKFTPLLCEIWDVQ
The experiment can be described thus: Fxr-responsive luciferase reporter assay (Fxre + Fxr) in SN4741 neural cells. To be noted: 24 h. The experiment is classed as cell-based, mouse. The protocol:
(§1) LC-ESI-MS on the LTQ-Orbitrap LC-ESI-MS and LC-ESI-MSn was performed using an Ultimate 3000 HPLC system (Dionex, Surrey, UK) linked to the ESI source of a LTQ-Orbitrap XL or LTQ-Orbitrap Velos (Thermo Fisher, San Jose, CA) mass spectrometer. Luciferase Reporter Assay. The ability of oxysterols and their acidic metabolites to activate several nuclear receptors i.e. Lxrα and β, Fxr, Vdr, Nurrl was tested in luciferase assays. Transient transfection studies were performed in the mouse neuronal cell line SN4741. This cell line was selected as the oxysterols and acidic metabolites tested were initially identified in CSF. Cells were plated in 24-well plates (5×10^5 cells/well) 24 hr before transfection and transfected with 1 μg of plasmid DNA/well complexed with 2 μL of Lipofectamine 2000 (Invitrogen). Cells were transfected with 400 ng of a Lxr-, Fxr-, Vdr- or Nurrl−responsive luciferase reporter construct, and 200 ng of Lxrα, Lxrβ, Fxr, Vdr or Nurrl. A reporter gene expressing the Renilla luciferase (pRL-TK, Promega) was co-transfected in all experiments as an internal control for normalization of transfection efficiency. After a 12 h incubation, the lipid/DNA mix was replaced with fresh 2.5% serum medium containing vehicle or appropriate ligand (10 μM), as specified in each experiment. […]
On the technique in general: In a reporter assay the amount or activity of a reporter protein is the signal.

For experiment [1], the system named is Nur-related factor 1 (Nurrl)/retinoid X receptor (Rxr) heterodimers. The following applies: SN4741 cells, 10 μM. How it is done: as §1

`C[C@H](CCC(=O)O)[C@H]1CC[C@H]2[C@@H]3CC=C4C[C@@H](O)CC[C@]4(C)[C@H]3CC[C@]12C` [3βH-Δ^5-BA, 3β-hydroxychol-5-en-24-oic acid]: the “Fxr activation, luciferase activity” value at Fxr is listed as “also activated Fxr, but was less potent than CDCA”.
In the case of `CC1=C(/C=C/C(C)=C\C=C\C(C)=C\C(=O)O)C(C)(C)CCC1` [9-cis-RA, 9-cis-retinoic acid], the “Activation of DR5 element luciferase reporter” value in experiment [1] is on record as “activated this reporter”.

These data come from patent US20230416299A1, “COMPOUND AND METHOD FOR THE TREATMENT AND DIAGNOSIS OF NEURODEGENERATIVE CONDITIONS” (Swansea University, priority 2013, published 2023).
